Source: patent publication US8629273B2, “Diazinylpyrazolyl compounds” (Bayer Intellectual Property GmbH, priority 2009, dated 2014)

Tests used:
[1] = test system: larvae of the mustard beetle (Phaedon cochleariae); test: Phaedon test (PHAECO spray treatment); assay type: in vivo; conditions: 100 g/ha, after 7 days
Outline: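 Chinese cabbage leaf discs were sprayed with compound formulated in acetone/dimethyl formamide plus alkylaryl polyglycol ether emulsifier, diluted in emulsifier-containing water to the desired concentration. After drying, discs were infested with mustard beetle larvae. Mortality (%) was scored after 7 days, where 100% means all larvae killed.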

[2] = test system: green peach affid (Myzus persicae); test: Myzus test (MYZUPE spray treatment); assay type: in vivo; conditions: 100 g/ha, after 6 days
Method: Solvents: 78 parts by weight of acetone
• 1.5 parts by weight of dimethyl formamide Emulsifier: 0.5 part by weight of alkylaryl polyglycol ether
To produce a suitable preparation of active compound, 1 part by weight of active compound is mixed with the stated amounts of solvent and emulsifier, and the concentrate is diluted with emulsifier-containing water to the desired concentration.
Discs of Chinese cabbage leaves (Brassica pekinensis) infested by all stages of the green peach affid (Myzus persicae) are sprayed with an active compound preparation of the desired concentration.
After 6 days, the activity in % is determined. 100% means that all affids have been killed; 0% means that none of the affids have been killed.

[3] = test system: caterpillars of the army worm (Spodoptera frugiperda); test: Spodoptera frugiperda test (SPODFR spray treatment); assay type: in vivo; conditions: 100 g/ha, after 7 days
Outline: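 Maize leaf discs sprayed with compound in acetone/DMF with alkylaryl polyglycol ether emulsifier, diluted in emulsifier-containing water to the test concentration. Once dry, discs were infested with army worm caterpillars. Mortality scored after 7 days as % activity (100% = all caterpillars killed).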

[4] = logP by HPLC on reversed-phase columns (C 18), EU Guideline 79/831 Annex V.A8; assay type: physicochemical
adult Musca domestica = test: Musca domestica test (MUSCDO); assay type: in vivo; conditions: 100 ppm, treated sponge
Outline: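 Compound taken up in DMSO and diluted with water to test concentration, applied to a sponge in vessels then stocked with adult houseflies. Kill % scored after the set period; 100% = all flies dead, 0% = none.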

Boophilus microplus = Boophilus microplus test (BOOPMI injection); assay type: in vivo; conditions: 20 μg/animal, injected into the abdomen, after 7 days
Outline: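 Compound dissolved in DMSO, diluted with water and injected into the tick abdomen; ticks kept in a climatized room. Fertile egg deposition assessed after 7 days; 100% means no tick laid fertile eggs.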

Ctenocephalides felis = Ctenocephalides felis oral (CTECFE); assay type: in vivo; conditions: 100 ppm in citrated cattle blood, after 2 days
Outline: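 Twenty unfed adult fleas fed through parafilm on citrated cattle blood containing compound, diluted from a DMSO concentrate (10 mg per 0.5 ml). Kill % scored after 2 days (100% = all dead, 0% = none).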

Lucilia cuprina larvae = test: Lucilia cuprina test (LUCICU); assay type: in vivo; conditions: 100 ppm, treated horse meat, after 2 days
Outline: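 Horse meat treated with compound diluted in water from DMSO concentrate, then populated with larvae. Mortality scored after 2 days as percent kill, 100% meaning all larvae dead.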

[5] = test system: greenhouse red spider mite (Tetranychus urticae); test: Tetranychus test, OP resistant (TETRUR spray treatment); assay type: in vivo; conditions: 100 g/ha, after 6 days
Method: Solvents: 78.0 parts by weight of acetone • • 1.5 parts by weight of dimethyl formamide Emulsifier: 0.5 part by weight of alkylaryl polyglycol ether To produce a suitable preparation of active compound, 1 part by weight of active compound is mixed with the stated amounts of solvent and emulsifier, and the concentrate is diluted with emulsifier-containing water to the desired concentration. Discs of bean leaves (Phaseolus vulgaris) which are infested by all stages of the greenhouse red spider mite (Tetranychus urticae) are sprayed with an active compound preparation of the desired concentration. After 6 days, the activity in % is determined. 100% means that all spider mites have been killed; 0% means that none of the spider mites has been killed. The test was carried out and evaluated as described in Example B.7.

[6] = test system: Boophilus microplus strain Parkhurst (SP-resistant); test: Boophilus microplus test (DIP); assay type: in vivo; conditions: 100 ppm
Method: Test animals: adult fed females of the Boophilus microplus strain Parkhurst (SP-resistant)
Solvent: Dimethyl sulphoxide
10 mg of active compound are dissolved in 0.5 ml of dimethyl sulphoxide. To produce a suitable formulation, the active compound solution is diluted with water to the particular desired concentration. This active compound preparation is pipetted into tubes. 8-10 ticks are transferred into a further tube provided with holes. The tube is dipped into the active compound preparation, with all ticks being wetted completely. After the liquid has run off, the ticks are transferred to filter discs in plastic dishes and kept in a climatized room. After the desired period of time, the activity is checked for deposition of fertile eggs. Eggs whose fertility is not visible from the outside are kept in glass tubes in a climatized cupboard under the larvae have hatched. An activity of 100% means that no tick has laid fertile eggs.

[7] = ** LC-MS in the neutral range, pH 7.8, 0.001 molar aqueous ammonium bicarbonate and acetonitrile

logP ([4]; * LC-MS in the acidic range, pH 2.7, 0.1% aqueous formic acid and acetonitrile)	SMILES	activity (beetle larvae killed) [1]	activity (affids killed) [2]	activity (caterpillars killed) [3]	logP [4, 7]	kill (adult Musca domestica)	activity (no deposition of fertile eggs) (Boophilus microplus)	kill (Ctenocephalides felis)	kill (Lucilia cuprina larvae)	activity (spider mites killed) [5]	activity (no deposition of fertile eggs) [6]
	CCOC=Nc1c(-c2cc(Cl)cc(C(F)(F)F)c2)c(C(F)(F)C(F)F)nn1-c1ncccn1 [Example 1-34]	100%	90%	100%	4.43**	100%	100%	80%	100%	100%	
4.61*	CCOC=Nc1c(-c2cc(Cl)cc(C(F)(F)F)c2)c(C(F)(F)F)nn1-c1ncccn1 [Example 1-11]	100%	90%	100%	4.58**;	80%	100%		100%		
	CCCCOC=Nc1c(-c2cc(Cl)cc(C(F)(F)F)c2)c(C(F)(F)F)nn1-c1ncccn1 [Example 1-15]	100%	80%	100%	5.24**	80%	100%	100%	100%	100%	
	CCOC=Nc1c(-c2cc(Cl)cc(C(F)(F)F)c2)c(C(F)(F)C(F)(F)F)nn1-c1ncccn1 [Example 1-43]	100%	100%	100%	5.02**					100%	
	CCOC=Nc1c(-c2cc(Cl)c3c(c2)OCO3)c(C(F)(F)F)nn1-c1nccnc1OC [Example 2-18]	100%	100%	100%	4.03**		100%	100%	100%	100%	100%
